The molecules below were run against Thermotoga maritima mPPase (TmPPase) (Thermotoga maritima, UniProt Q9S5X0) (assay: TmPPase inhibition assay (96-well plate, orthophosphate determination)). Conditions: 2-bromophenyl carboxylates 25 and 26 versus 5 and 23; call rule not given here.
Chain of Thermotoga maritima mPPase (TmPPase) (Q9S5X0 whole entry): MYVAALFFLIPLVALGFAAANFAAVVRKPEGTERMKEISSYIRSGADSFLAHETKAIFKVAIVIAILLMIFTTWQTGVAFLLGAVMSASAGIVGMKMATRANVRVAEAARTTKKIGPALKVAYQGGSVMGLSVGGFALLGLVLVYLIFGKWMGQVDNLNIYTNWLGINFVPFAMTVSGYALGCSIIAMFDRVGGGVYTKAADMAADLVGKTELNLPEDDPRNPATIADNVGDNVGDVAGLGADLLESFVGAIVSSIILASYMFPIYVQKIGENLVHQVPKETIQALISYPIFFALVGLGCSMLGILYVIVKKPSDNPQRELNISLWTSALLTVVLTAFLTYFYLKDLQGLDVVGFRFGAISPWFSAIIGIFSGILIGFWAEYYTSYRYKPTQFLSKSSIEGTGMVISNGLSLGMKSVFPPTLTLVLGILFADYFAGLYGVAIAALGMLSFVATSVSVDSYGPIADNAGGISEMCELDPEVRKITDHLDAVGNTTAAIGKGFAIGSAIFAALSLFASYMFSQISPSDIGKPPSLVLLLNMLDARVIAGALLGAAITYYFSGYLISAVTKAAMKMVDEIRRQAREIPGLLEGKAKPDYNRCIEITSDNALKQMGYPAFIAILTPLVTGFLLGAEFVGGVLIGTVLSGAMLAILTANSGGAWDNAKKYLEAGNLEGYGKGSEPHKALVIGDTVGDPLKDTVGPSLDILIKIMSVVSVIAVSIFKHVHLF
Type: biochemical
Method: The inhibition assay was measured in 96 well plate assay as previously reported.5,6 Briefly, 1 µL of purified TmPPase (13 mg/mL) was reactivated in 99 µL of reactivation buffer (20 mM 2-(N-morpholino) ethanesulfonic acid (MES) pH 6.5, 3.5% (v/v) glycerol, 2 mM dithiothreitol (DTT), 4.5% dodecyl maltoside (DDM) and 12 mg/mL L-α-phosphatidylcholine from soybean) and incubated at 55 °C for 15 min. For the assay, to each tube strips, 0.2 µL of the reactivated enzyme was added to 14.8 µL of reaction buffer (200 mM Tris-Cl pH 8.0, 8.0 mM MgCl2, 333 mM KCl, and 67 mM NaCl) and 25 µL of inhibitor. The reaction mixtures were sealed with an adhesive sealing sheet (Thermo Scientific) and incubated at 71 °C for 5 min. The reactions were started with the addition of 10 µL of 2 mM sodium pyrophosphate, further incubation at 71 °C for 5 min and stopped by placing the reaction mixtures on ice for 10 min. The color development was done with the addition of ammonium heptamolybdate + ascorbic acid solution on ice for 10 min and then 90 µL of arsenic solution, at room temperature, for a minimum of 30 min. 180 µL of each reaction mixtures was then transferred into a clear 96 well polystyrene microplate and the absorbance was measured at 860 nm using a microplate spectrophotometer (MultiSkan Go, Thermo Scientific). The pilot inhibitor screening of 16 phosphate-mimicking fragments was done at 100 μM inhibitor concentration. Further screening was done with three different concentrations; 1 μM, 5 μM and 50 μM for soluble compounds, and 1 μM, 5 μM, and 20 μM for sparingly soluble compounds.6 The best hits were validated using 8 concentrations in triplicate in TmPPase.
The potent hits 12k and 12l compounds were then tested on the P. falciparum (PfPPase-VP1) membrane fractions expressed in baculovirus-infected insect cells (the expression method and further enzyme analysis will be described in more detail elsewhere). Briefly, to each tube strips, 2.4 µL of PfPPase-VP1 membrane fraction (5 mg/mL) was added into 12.6 µL of reaction buffer (200 mM Tris-Cl pH 8.0, 8.0 mM MgCl2, 333 mM KCl, 67 mM NaCl, 3.3 mM NaF, and 17 μM Gramicidin D) and 25 µL of inhibitor. The reaction mixtures were incubated at 30 °C for 5 min and the assay was started by the addition of 10 µL of 2 mM sodium pyrophosphate and further incubation at 30 °C for 10 min. The reaction termination and color development were done as before.
The in vitro anti-plasmodial activity assay strain 3D7 was maintained in culture as described previously.7 Briefly, parasites were cultured in O+ human erythrocytes at 5% haematocrit in RPMI - 1640 medium supplemented with 0.5% Albumax II (Gibco, Carlsbad, CA, USA), 200 μM hypoxanthine (Sigma, St. Louis, MO, USA) and 20 μg/mL gentamycin (Gibco). Parasites were synchronized with the sorbitol method as described. 8 Test compound was dissolved in DMSO to make a stock solution of 10 mM. Two -fold serial dilutions of the test compound were made in the culture medium to cover the range of 400 µM – 400 nM. Fifty microliters of each dilution were mixed in 96 well plate with 150 µL of 2% haematocrit of 0.5% parasitemia (ring stage). DMSO concentration in the highest compound concentration w as 0.1%. After 72 h incubation at 37 °C, the parasite growth was quantified using fluorescent SYBR Green I ® -based assay as described. 9 The half-maximal inhibitory concentration (IC 50) of the test compound was assessed using the non-linear regression fit model in Prism 7 (GraphPad Software). The potent anti-malarial drug, artemisinin, was use in parallel as a positive control. Each concentration of the test compound was tested in duplicate and the assay was repeated three times. The mean and standard deviation of the three repeats were used to estimate the IC50.
IC50 determinations were done using R 3.6.110 and the n-parameter logistic regression (nplr) package11 version 0.1-7. In this package, the weighted nplr, given x (compound concentrations) and […]
With O=C(Oc1ccccc1Br)c1cnc(-c2ccccc2)s1 [Compound 26] the “fold loss in activity compared to the carboxylic acids” value was 1.6 fold.

Same assay, conditions: IC50 [CI95%] (µM), purified TmPPase; unrounded values of the molecular formula strings file
For O=C(Oc1ccccc1Br)c1cc(-c2ccc([N+](=O)[O-])cc2)on1 [Compound 12h], the IC50 was 19.6 µM. In the case of CCOC(=O)c1cc(-c2ccc(OC)c(S(=O)(=O)Nc3ccc(Cl)cc3)c2)on1 [SI-33], the IC50 is reported as 280 µM. CCOC(=O)c1cc(-c2ccc(OC)c(S(=O)(=O)Nc3cc(C)on3)c2)on1 [SI-17] gave an IC50 of 240 µM. In the case of CCOC(=O)c1cc(-c2cccc(C(C)(C)C)c2)on1 [Compound 10j], the IC50 is reported as 1210 µM. CCOC(=O)c1cc(-c2ccc(OC)c(S(=O)(=O)Nc3ccc(F)cc3Cl)c2)on1 [SI-29] gave an IC50 of 180 µM. CCOC(=O)c1cc(-c2ccc(OC)c(S(=O)(=O)NC3CCCc4ccccc43)c2)on1 (stereo not drawn) [SI-19] was tested, and the IC50 was 29.1 µM. Work on Cc1ccc(-c2cc(C(=O)Oc3ccccc3Br)no2)cc1C [SI-54] yielded an IC50 of 17.4 µM. With CCOC(=O)c1cc(-c2ccc(OC)c(S(=O)(=O)Nc3ccc(Cl)cc3F)c2)on1 [SI-32] the IC50 was 122 µM.

Same assay, conditions: IC50 [CI95%], purified TmPPase; 95% confidence interval in square brackets
O=C(Oc1ccccc1Br)c1cc(-c2ccc([N+](=O)[O-])cc2)on1 [Compound 12h] gave an IC50 of 20 µM. CCOC(=O)c1cc(-c2ccc(OC)c(S(=O)(=O)Nc3ccc(Cl)cc3)c2)on1 [SI-33] gave an IC50 of 280 µM. For CCOC(=O)c1cc(-c2ccc(OC)c(S(=O)(=O)Nc3cc(C)on3)c2)on1 [SI-17], the IC50 was 240 µM. With CCOC(=O)c1cc(-c2ccc(OC)c(S(=O)(=O)Nc3ccc(F)cc3Cl)c2)on1 [SI-29] the IC50 was 180 µM. For CCOC(=O)c1cc(-c2ccc(OC)c(S(=O)(=O)NC3CCCc4ccccc43)c2)on1 (stereo not drawn) [SI-19], the IC50 was 29 µM. In the case of Cc1ccc(-c2cc(C(=O)Oc3ccccc3Br)no2)cc1C [SI-54], the IC50 is reported as 17 µM. CCOC(=O)c1cc(-c2ccc(OC)c(S(=O)(=O)Nc3ccc(Cl)cc3F)c2)on1 [SI-32] gave an IC50 of 122 µM.

Same assay, conditions: TmPPase
With CCOC(=O)c1cc(-c2cccc(-c3cc(C(=O)OCC)no3)c2)on1 [Compound 10n] the “biological activity (in words)” value was “neither the carboxylic acid 11n nor the ester 10n were notably active”.

Same assay, conditions: computed using the pIC50 and the Heavy Atom Count (LEHA) normalization method, Discovery Studio
In the case of O=C(Oc1ccccc1Br)c1cc(-c2ccc([N+](=O)[O-])cc2)on1 [Compound 12h], the “LE (ligand efficiency)” value is reported as 0.19. With CC(C)(C)c1cc(C(=O)Nc2ccccc2Br)cc(C(C)(C)C)c1 [Compound 15] the “LE (ligand efficiency)” value was 0.18. In the case of O=C(O)c1cnc(-c2ccccc2)s1 [Compound 23], the “LE (ligand efficiency)” value is reported as 0.32. O=C(Oc1ccccc1Br)c1cnc(-c2ccccc2)s1 [Compound 26] was tested, and the “LE (ligand efficiency)” value was 0.20. In the case of CCOC(=O)c1cc(-c2ccc(OC)c(S(=O)(=O)NC3CCCc4ccccc43)c2)on1 (stereo not drawn) [SI-19], the “LE (ligand efficiency)” value is reported as 0.14. In the case of O=c1[nH]c2ccc(S(=O)(=O)CCO)cc2o1 [Compound 2], the “LE (ligand efficiency)” value is reported as 0.27. With Cc1ccc(-c2cc(C(=O)Oc3ccccc3Br)no2)cc1C [SI-54] the “LE (ligand efficiency)” value was 0.20. In the case of Cc1cc(C)cc(-c2cc(C(=O)Oc3ccccc3)no2)c1 [Compound 27], the “LE (ligand efficiency)” value is reported as 0.20. For CC(C)(C)c1cc(C(=O)Nc2ccc(S(N)(=O)=O)cc2)cc(C(C)(C)C)c1 [Compound 14], the “LE (ligand efficiency)” value was 0.16.

Same assay, conditions: purified TmPPase; 95% confidence interval in square brackets
With CC(C)(C)c1cc(CC(=O)O)cc(C(C)(C)C)c1 [SI-42] the “IC50 [CI95%]” value was “Inactive”. For CCOC(=O)c1cc(-c2ccc(OC)c(S(=O)(=O)NC3CCCC3)c2)on1 [SI-26], the “IC50 [CI95%]” value was “Inactive”. For CCOC(=O)c1cc(-c2cccc(OC)c2)on1 [Compound 10f], the “IC50 [CI95%]” value was “Inactive”. CCOC(=O)c1cc(-c2cccc(C(C)(C)C)c2)on1 [Compound 10j] was tested, and the “IC50 [CI95%]” value was “Slightly active”. For CCOC(=O)c1cc(-c2ccc([N+](=O)[O-])cc2)on1 [Compound 10h], the “IC50 [CI95%]” value was “Inactive”. O=C(O)c1csc(-c2ccc(C(F)(F)F)cc2)n1 [SI-52] was tested, and the “IC50 [CI95%]” value was “Inactive”. CCOC(=O)c1cc(-c2cccc(C(=O)OC)c2)on1 [Compound 10c] was tested, and the “IC50 [CI95%]” value was “Inactive”. CCOC(=O)c1cc(-c2ccc(OC)c(S(=O)(=O)N3CCOCC3)c2)on1 [SI-23] was tested, and the “IC50 [CI95%]” value was “Inactive”. For CCOC(=O)c1cc(-c2ccccc2OC)on1 [Compound 10e], the “IC50 [CI95%]” value was “Inactive”. O=C(O)c1ccc2c(c1)B(O)OC2 [SI-3] was tested, and the “IC50 [CI95%]” value was “Inactive”. With O=C(O)CS(=O)(=O)c1ccccc1[N+](=O)[O-] [SI-4] the “IC50 [CI95%]” value was “Inactive”. CCOC(=O)c1cc(-c2ccc(OC)c(S(=O)(=O)Nc3cccc(Cl)c3)c2)on1 [SI-30] was tested, and the “IC50 [CI95%]” value was “Inactive”. For Nc1nnnn1CC(=O)O [SI-11], the “IC50 [CI95%]” value was “Inactive”. With COc1ccc(-c2cc(C(=O)O)no2)cc1S(=O)(=O)N1CCCC1 [SI-28] the “IC50 [CI95%]” value was “Inactive”. In the case of CCOC(=O)c1cc(-c2ccc(OC)c(S(=O)(=O)N3CCc4ccccc43)c2)on1 [SI-25], the “IC50 [CI95%]” value is reported as “Inactive”. With CCOC(=O)c1cc(-c2ccc(OC)c(S(=O)(=O)N3CC(=O)Nc4ccccc43)c2)on1 [SI-21] the “IC50 [CI95%]” value was “Inactive”. In the case of CCOC(=O)c1cc(-c2ccccc2C(=O)OC)on1 [Compound 10b], the “IC50 [CI95%]” value is reported as “Inactive”. In the case of CC(C)(C)c1cc(C(=O)NCCN2CCOCC2)cc(C(C)(C)C)c1 [SI-48], the “IC50 [CI95%]” value is reported as “Inactive”. For CCOC(=O)c1cc(-c2csc(Nc3ccccc3)n2)on1 [SI-16], the “IC50 [CI95%]” value was “Inactive”. In the case of CCOC(=O)c1cc(-c2ccc(OC)c(S(=O)(=O)N3CCOc4ccccc43)c2)on1 [SI-22], the “IC50 [CI95%]” value is reported as “Inactive”. With CCOC(=O)c1cc(-c2csc(-c3cccc(Cl)c3)n2)on1 [SI-15] the “IC50 [CI95%]” value was “Inactive”. In the case of CC(C)(C)c1cc(C(=O)Nc2ccccc2C(=O)O)cc(C(C)(C)C)c1 [SI-47], the “IC50 [CI95%]” value is reported as “Inactive”. With CCOC(=O)c1cc(-c2ccc(OC)cc2)on1 [Compound 10g] the “IC50 [CI95%]” value was “Inactive”. CCOC(=O)c1cc(-c2csc(CS(=O)(=O)c3ccccn3)n2)on1 [SI-14] was tested, and the “IC50 [CI95%]” value was “Inactive”. For CCOC(=O)c1cc(-c2cccc(C)c2)on1 [Compound 10i], the “IC50 [CI95%]” value was “Inactive”. In the case of O=C(O)c1ccc2c(c1)S(=O)(=O)NC2=O [SI-6], the “IC50 [CI95%]” value is reported as “Inactive”. In the case of CC1(C)CS(=O)(=O)N(c2ccc(S(=O)(=O)Cl)cc2)C1=O [SI-5], the “IC50 [CI95%]” value is reported as “Inactive”.

Same assay, conditions: versus 12k
For Cc1cc(C)cc(-c2cc(C(=O)Oc3ccccc3)no2)c1 [Compound 27], the “fold loss of inhibition on removing the bromine atom” value was 3.6 fold.
